Measurements reported in ChEMBL document CHEMBL1121755, “Comparison of the inhibition of methotrexate-sensitive and -resistant Lactobacillus casei cell cultures with purified Lactobacillus casei dihydrofolate reductase by 4,6-diamino-1,2-dihydro-2,2-dimethyl-1-(3-substituted-phenyl)-s-triazines. Use of quantitative structure-activity relationships in …” (1981).

Target: Dihydrofolate reductase (Lactobacillus casei) (UniProt P00381)
Settings: Lacticaseibacillus casei
Description: Inhibitory activity against Lactobacillus casei dihydrofolate reductase (DHFR)

Dihydrofolate reductase (Lactobacillus casei), sequence (P00381 whole entry): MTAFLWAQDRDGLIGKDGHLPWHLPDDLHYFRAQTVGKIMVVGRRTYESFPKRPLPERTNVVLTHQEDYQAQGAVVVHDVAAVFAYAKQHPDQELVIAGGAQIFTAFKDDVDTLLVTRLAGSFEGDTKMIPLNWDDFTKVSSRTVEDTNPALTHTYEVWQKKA

`CCCCCCCCCCCCCOc1cccc(N2C(N)=NC(N)=NC2(C)C)c1` gave a log 1/Ki app of 4.81.
`CC1(C)N=C(N)N=C(N)N1c1cccc(OCc2ccc(Cl)c(Cl)c2)c1` was tested, and the log 1/Ki app was 4.41.
`CCc1cccc(OCc2cccc(N3C(N)=NC(N)=NC3(C)C)c2)c1` showed a log 1/Ki app of 5.31.
Work on `CC(=O)c1cccc(N2C(N)=NC(N)=NC2(C)C)c1` yielded a log 1/Ki app of 2.87.
`CC1(C)N=C(N)N=C(N)N1c1cccc(OCc2ccccc2)c1` showed a log 1/Ki app of 4.2.
For `CC1(C)N=C(N)N=C(N)N1c1cccc(S(=O)(=O)F)c1`, the log 1/Ki app was 3.21.
Molecule `CCCCCCCCCOc1cccc(N2C(N)=NC(N)=NC2(C)C)c1` has a log 1/Ki app of 4.71.
Molecule `CC1(C)N=C(N)N=C(N)N1c1cccc(COc2ccccc2)c1` has a log 1/Ki app of 5.44.
Work on `CC1(C)N=C(N)N=C(N)N1c1cccc([N+](=O)[O-])c1` yielded a log 1/Ki app of 3.56.
For `CC1(C)N=C(N)N=C(N)N1c1cccc(COc2cccc(NC(=N)S)c2)c1`, the log 1/Ki app was 4.36.
`CC1(C)N=C(N)N=C(N)N1c1cccc(OCCCCOc2cccc(C(F)(F)F)c2)c1` showed a log 1/Ki app of 4.79.
`CC1(C)N=C(N)N=C(N)N1c1cccc(OCCCCOc2ccccc2)c1` was tested, and the log 1/Ki app was 4.79.
`CC1(C)N=C(N)N=C(N)N1c1cccc(CNc2cc(C(N)=O)cc(C(N)=O)c2)c1` was tested, and the log 1/Ki app was 4.74.
With `COc1cccc(OCc2cccc(N3C(N)=NC(N)=NC3(C)C)c2)c1` the log 1/Ki app was 5.56.
`CCCCCCCCCCCOc1cccc(N2C(N)=NC(N)=NC2(C)C)c1` showed a log 1/Ki app of 4.54.
Work on `CC1(C)N=C(N)N=C(N)N1c1cccc(COc2cccc(NC(N)=O)c2)c1` yielded a log 1/Ki app of 5.36.
`CC(=O)Nc1cccc(OCc2cccc(N3C(N)=NC(N)=NC3(C)C)c2)c1` showed a log 1/Ki app of 5.45.
`CC1(C)N=C(N)N=C(N)N1c1cccc(Br)c1` gave a log 1/Ki app of 3.69.
`Cc1cccc(OCc2cccc(N3C(N)=NC(N)=NC3(C)C)c2)c1` was tested, and the log 1/Ki app was 5.33.
Molecule `Cc1cccc(N2C(N)=NC(N)=NC2(C)C)c1` has a log 1/Ki app of 3.07.
`CC1(C)N=C(N)N=C(N)N1c1cccc(I)c1` showed a log 1/Ki app of 3.73.
`CC(C)c1cccc(OCc2cccc(N3C(N)=NC(N)=NC3(C)C)c2)c1` showed a log 1/Ki app of 5.41.
`CCCCCCCCCCCCCCOc1cccc(N2C(N)=NC(N)=NC2(C)C)c1` was tested, and the log 1/Ki app was 4.5.
Molecule `CCCCCCc1cccc(N2C(N)=NC(N)=NC2(C)C)c1` has a log 1/Ki app of 4.96.
`CC1(C)N=C(N)N=C(N)N1c1cccc(OCCOc2cccc(C(F)(F)F)c2)c1` was tested, and the log 1/Ki app was 4.1.
For `CC1(C)N=C(N)N=C(N)N1c1cccc(F)c1`, the log 1/Ki app was 3.29.
`CCCCCCCCCCCCOc1cccc(N2C(N)=NC(N)=NC2(C)C)c1` was tested, and the log 1/Ki app was 4.63.
`CC1(C)N=C(N)N=C(N)N1c1cccc(COc2cccc(Cl)c2)c1` was tested, and the log 1/Ki app was 5.41.
In the case of `CC(C)(C)c1cccc(N2C(N)=NC(N)=NC2(C)C)c1`, the log 1/Ki app is reported as 3.2.
For `CCCCOc1cccc(N2C(N)=NC(N)=NC2(C)C)c1`, the log 1/Ki app was 4.2.
`CC1(C)N=C(N)N=C(N)N1c1cccc(COc2cccc(C#N)c2)c1` was tested, and the log 1/Ki app was 5.31.
For `CCOC(=O)c1cccc(N2C(N)=NC(N)=NC2(C)C)c1`, the log 1/Ki app was 3.21.
`CC1(C)N=C(N)N=C(N)N1c1cccc(OCCOc2ccccc2)c1` showed a log 1/Ki app of 3.74.
Work on `CC(C)(C)c1cccc(OCc2cccc(N3C(N)=NC(N)=NC3(C)C)c2)c1` yielded a log 1/Ki app of 5.44.
`CC1(C)N=C(N)N=C(N)N1c1cccc(COc2cccc(CO)c2)c1` was tested, and the log 1/Ki app was 5.45.
